From publication PMC5011342, “A high throughput drug screening assay to identify compounds that promote oligodendrocyte differentiation using acutely dissociated and purified oligodendrocyte precursor cells” (BMC Research Notes, 2016)
Like-named read-outs stand apart in the source and are kept apart here.

Experiments:
[1] = system: acutely dissociated and purified rat OPCs; assay: Acute OL differentiation assay (MBP expression/cell, immunofluorescent image quantification); assay type: cell-based; conditions: for activation at 0.08 µM: 0.08 uM test compound, read-out: OL differentiation, 0.08 uM (% Quet)
In short: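 Oligodendrocyte precursor cells were enriched from P6-P7 Sprague–Dawley rat brains by immunopanning (RAN-2 and GalC depletion, O4 selection), plated at 5000 cells/well in serum-free, mitogen-free differentiation media on PDL/laminin 96-well view plates, centrifuged at 200×g, and pre-incubated 1–2 h before test compounds were added in quadruplicate. On DIV4, cells were fixed, stained for MBP and DAPI, imaged automatically, and MBP expression per cell was quantified.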

expanded OPCs = assay: cells; conditions: for viability at 0.1 µM / viability at 1 µM / viability at 10 µM: Rattus norvegicus, 72 h; for 0.1 µM (% DMSO) / 1 µM (% DMSO) / 10 µM (% DMSO): alamarBlue viability of expanded OPCs, relative to DMSO control; for 0.1 µM (% DMSO): compound at 0.1 µM; for 1 µM (% DMSO): compound at 1 µM; for 10 µM (% DMSO): compound at 10 µM
In short: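 Expanded OPCs seeded at 10,000 cells/well in differentiation media, then exposed to NCC library compounds at 10, 1 and 0.1 µM (quadruplicate, 0.1% DMSO) for three days. Viability read as alamarBlue fluorescence (560/590 nm) after 4 h at 37 °C; tunicamycin 5 ng/ml served as toxicity control.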

[2] = Rattus norvegicus, test compound at 2 uM, NCC library screen, sheet "All OLga data", relative to quetiapine, read-out: 2 uM (% Quet)
[3] = Rattus norvegicus, test compound at 10 uM, NCC library screen, sheet "All OLga data", relative to quetiapine, read-out: 10 uM (% Quet)
[4] = read-out: 0.1 µM (% DMSO), alamarBlue viability, NCC library compound at 0.1 µM, sheet "All Tox data"
[5] = read-out: 1 µM (% DMSO), alamarBlue viability, NCC library compound at 1 µM, sheet "All Tox data"
[6] = read-out: 10 µM (% DMSO), alamarBlue viability, NCC library compound at 10 µM, sheet "All Tox data"
[7] = Rattus norvegicus, 2 uM test compound, relative to quetiapine, sheet "All OLga data", read-out: OL differentiation, 2 uM (% Quet)
[8] = Rattus norvegicus, 10 uM test compound, relative to quetiapine, sheet "All OLga data", read-out: OL differentiation, 10 uM (% Quet)
[9] = read-out: 0.1 µM (% DMSO), alamarBlue viability of expanded OPCs, compound at 0.1 µM, sheet All Tox data
[10] = read-out: 1 µM (% DMSO), alamarBlue viability of expanded OPCs, compound at 1 µM, sheet All Tox data
[11] = read-out: 10 µM (% DMSO), alamarBlue viability of expanded OPCs, compound at 10 µM, sheet All Tox data
[12] = Rattus norvegicus, relative to quetiapine, sheet "All OLga data"
[13] = Rattus norvegicus, 0.4 uM test compound, relative to quetiapine, sheet "All OLga data", read-out: OL differentiation, 0.4 uM (% Quet)
[14] = Rattus norvegicus, test compound at 2 uM, MBP expression relative to quetiapine, NCC library screen, sheet "All OLga data", read-out: 2 uM (% Quet)
[15] = Rattus norvegicus, test compound at 10 uM, MBP expression relative to quetiapine, NCC library screen, sheet "All OLga data", read-out: 10 uM (% Quet)

Compound | activation at 2 µM [1, 2] [%] | viability at 0.1 µM (expanded OPCs; [4]) [%] | viability at 1 µM (expanded OPCs; [5]) [%] | viability at 10 µM (expanded OPCs; [6]) [%] | activation at 2 µM [1, 7] [%] | activation at 10 µM [1, 8] [%] | viability at 0.1 µM (expanded OPCs; [9]) [%] | viability at 1 µM (expanded OPCs; [10]) [%] | viability at 10 µM (expanded OPCs; [11]) [%] | also measured
O=C(NCCO[N+](=O)[O-])c1cccnc1 [Nicorandil] | 14.7 | 92.6 | 85.6 | 82.2 |  |  |  |  |  | activation at 10 µM [1, 3]: 3.2%
CN1CCC[C@H]1c1cccnc1 [Nicotine] |  |  |  |  |  |  |  |  |  | activation at 2 µM ([1]; Rattus norvegicus, read-out: 2 uM (% Quet)): 12.3%; activation at 10 µM ([1]; Rattus norvegicus, read-out: 10 uM (% Quet)): 10.9%; viability at 0.1 µM (expanded OPCs; read-out: 0.1 µM (% DMSO)): 92.9%; viability at 1 µM (expanded OPCs; read-out: 1 µM (% DMSO)): 89.4%; viability at 10 µM (expanded OPCs; read-out: 10 µM (% DMSO)): 93.5%
OCc1cccnc1 [Nicotinyl Alcohol] | -9.3 | 88.5 | 90.1 | 89.3 |  |  |  |  |  | activation at 10 µM [1, 3]: -3.3%
Cn1c(NCCN(CCO)CCCc2ccc([N+](=O)[O-])cc2)cc(=O)n(C)c1=O [Nifekalant] |  |  |  |  | -9.4 | 6 | 94.4 | 97.6 | 109 | 
CN1C(=O)CN=C(c2ccccc2)c2cc([N+](=O)[O-])ccc21 [Nimetazepam] |  | 89.5 | 82.8 | 81.8 | 6.5 | -0.15 |  |  |  | 
COCCOC(=O)C1=C(C)NC(C)=C(C(=O)OC(C)C)C1c1cccc([N+](=O)[O-])c1 (centres unmarked) [Nimodipine] | 4.8 | 88 | 87.4 | 54.5 |  |  |  |  |  | activation at 0.4 µM ([1]; Rattus norvegicus, test compound at 0.4 uM, NCC library screen, sheet "All OLga data", relative to quetiapine, read-out: 0.4 uM (% Quet)): -13.1%
COC(=O)C1=C(C)NC(C)=C(C(=O)OCC(C)C)C1c1ccccc1[N+](=O)[O-] (centres unmarked) [Nisoldipine] |  |  |  |  |  |  | 94.2 | 11.9 | 11.4 | activation at 0.08 µM [1, 12]: -23.7%; activation at 0.4 µM [1, 13]: -133%
CN(C)CCCC1(c2ccc(F)cc2)OCc2cc(C#N)ccc21 (centres unmarked) [Nitalapram, reference compound] | 37.5 | 95.9 | 94.9 | 91.9 | 33 | 46.5 | 85.9 | 101 | 110 | activation at 2 µM [1, 14]: 30.4%; activation at 10 µM [1, 15]: 6.5%; activation at 10 µM [1, 3]: 38.6%; EC50 ([1]; Rattus norvegicus, average EC50 for induction of OL differentiation from independent biological replicates, eight concentrations): 1.1 µM; hit in OL differentiation assay, MRF-TMC ([1]; ● = confirmed hit in this paper's assay): ●; 0.1 µM (% DMSO) (expanded OPCs): 107.3 % DMSO; 1 µM (% DMSO) (expanded OPCs): 108.9 % DMSO; 10 µM (% DMSO) (expanded OPCs): 99.4 % DMSO
CC(=O)Oc1ccccc1C(=O)Nc1ncc([N+](=O)[O-])s1 [Nitazoxanide] |  | 91 | 96.5 | 55.7 | -75.9 |  |  |  |  | 
O=C1CN=C(c2ccccc2)c2cc([N+](=O)[O-])ccc2N1 [Nitrazepam] |  |  |  |  | 7.3 | -25.3 | 84.2 | 88.9 | 95 | 
CCOC(=O)C1=C(C)NC(C)=C(C(=O)OC)C1c1cccc([N+](=O)[O-])c1 (centres unmarked) [Nitrendipine] |  |  |  |  | -27 |  | 104 | 90.7 | 35.6 | activation at 0.4 µM [1, 13]: -4.7%
O=C1CN(/N=C/c2ccc([N+](=O)[O-])o2)C(=O)N1 [Nitrofurantoin] | -26.2 |  |  |  |  |  |  |  |  | activation at 10 µM [1, 3]: -72.2%; 0.1 µM (% DMSO) (expanded OPCs): 101.2 % DMSO; 1 µM (% DMSO) (expanded OPCs): 101.9 % DMSO; 10 µM (% DMSO) (expanded OPCs): 87.2 % DMSO
CNC(=C[N+](=O)[O-])NCCSCc1csc(CN(C)C)n1 [Nizatidine] |  |  |  |  | -1.7 | 13 | 92.6 | 89 | 96.6 | 
COc1ccc(-c2cc(=O)c3c(OC)c(OC)c(OC)c(OC)c3o2)cc1OC [Nobiletin] |  |  |  |  |  |  | 76.3 | 28.1 | 28.1 | activation at 0.08 µM [1, 12]: 8.4%; activation at 0.4 µM [1, 13]: -28.4%
NC[C@H](O)c1ccc(O)c(O)c1 [Norepinephrine] |  |  |  |  |  |  |  |  |  | activation at 2 µM [1, 14]: -1.9%; activation at 10 µM [1, 15]: -78%; 0.1 µM (% DMSO) (expanded OPCs): 99.4 % DMSO; 1 µM (% DMSO) (expanded OPCs): 99.0 % DMSO; 10 µM (% DMSO) (expanded OPCs): 68.5 % DMSO
